Measurements as given in patent US8969516B2, “Method of hydrolysis of peptide bond” (priority 2006, dated 2015).

Assay: MALDI-TOF screening of Ni^2+ dependent hydrolysis in a combinatorial peptide library
Assay type: physicochemical
Conditions: CH3CO-Gly-Ala-Thr-X-His-Z-Lys-Phe-Leu-NH2 library, Ni^2+ 2 mM, pH 8.2, 10 mM Tris, score=24/tm
How it was run: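 MALDI-TOF read-out: appearance of Ser/Thr-X-His-Z-Lys-Phe-Leu-NH2 product signals, plus loss of substrate signals, checked by eye at 2, 4, 6, 8 h. Conditions: 1 mM peptide mixture, 2 mM Ni2+, 10 mM Tris pH 8.2, 37 or 45 °C.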

| Substance | hydrolysis score from MALDI-TOF screening (37° C.) | hydrolysis score from MALDI-TOF screening (45° C.) |
| --- | --- | --- |
| Ac-GATTHWKFL-NH2 [TTHW] | 0 (a score of 0 if no trace of the product of hydrolysis was seen after 8 hours of incubation) | 0 (a score of 0 if no trace of the product of hydrolysis was seen after 8 hours of incubation) |
| Ac-GATTHYKFL-NH2 [TTHY] | 0 (a score of 0 if no trace of the product of hydrolysis was seen after 8 hours of incubation) | 0 (a score of 0 if no trace of the product of hydrolysis was seen after 8 hours of incubation) |
| Ac-GATVHAKFL-NH2 [TVHA] | 0 (a score of 0 if no trace of the product of hydrolysis was seen after 8 hours of incubation) | 0 (a score of 0 if no trace of the product of hydrolysis was seen after 8 hours of incubation) |
| Ac-GATVHDKFL-NH2 [TVHD] | 0 (a score of 0 if no trace of the product of hydrolysis was seen after 8 hours of incubation) | 0 (a score of 0 if no trace of the product of hydrolysis was seen after 8 hours of incubation) |
| Ac-GATVHEKFL-NH2 [TVHE] | 0 (a score of 0 if no trace of the product of hydrolysis was seen after 8 hours of incubation) | 0 (a score of 0 if no trace of the product of hydrolysis was seen after 8 hours of incubation) |
| Ac-GATVHFKFL-NH2 [TVHF] | 0 (a score of 0 if no trace of the product of hydrolysis was seen after 8 hours of incubation) | 0 (a score of 0 if no trace of the product of hydrolysis was seen after 8 hours of incubation) |
| Ac-GATVHGKFL-NH2 [TVHG] | 0 (a score of 0 if no trace of the product of hydrolysis was seen after 8 hours of incubation) | 0 (a score of 0 if no trace of the product of hydrolysis was seen after 8 hours of incubation) |
| Ac-GATVHHKFL-NH2 [TVHH] | 0 (a score of 0 if no trace of the product of hydrolysis was seen after 8 hours of incubation) | 0 (a score of 0 if no trace of the product of hydrolysis was seen after 8 hours of incubation) |
| Ac-GATVHIKFL-NH2 [TVHI] | 0 (a score of 0 if no trace of the product of hydrolysis was seen after 8 hours of incubation) | 0 (a score of 0 if no trace of the product of hydrolysis was seen after 8 hours of incubation) |
| Ac-GATVHKKFL-NH2 [TVHK] | 0 (a score of 0 if no trace of the product of hydrolysis was seen after 8 hours of incubation) | 0 (a score of 0 if no trace of the product of hydrolysis was seen after 8 hours of incubation) |
| Ac-GATVHLKFL-NH2 [TVHL] | 0 (a score of 0 if no trace of the product of hydrolysis was seen after 8 hours of incubation) | 0 (a score of 0 if no trace of the product of hydrolysis was seen after 8 hours of incubation) |
| Ac-GATVHMKFL-NH2 [TVHM] | 0 (a score of 0 if no trace of the product of hydrolysis was seen after 8 hours of incubation) | 0 (a score of 0 if no trace of the product of hydrolysis was seen after 8 hours of incubation) |
| Ac-GATVHPKFL-NH2 [TVHP] | 0 (a score of 0 if no trace of the product of hydrolysis was seen after 8 hours of incubation) | 0 (a score of 0 if no trace of the product of hydrolysis was seen after 8 hours of incubation) |
| Ac-GATVHQKFL-NH2 [TVHQ] | 0 (a score of 0 if no trace of the product of hydrolysis was seen after 8 hours of incubation) | 0 (a score of 0 if no trace of the product of hydrolysis was seen after 8 hours of incubation) |
| Ac-GATVHRKFL-NH2 [TVHR] | 0 (a score of 0 if no trace of the product of hydrolysis was seen after 8 hours of incubation) | 3 (a score of 3 for detection at 8 hours) |
| Ac-GATVHSKFL-NH2 [TVHS] | 0 (a score of 0 if no trace of the product of hydrolysis was seen after 8 hours of incubation) | 0 (a score of 0 if no trace of the product of hydrolysis was seen after 8 hours of incubation) |
| Ac-GATVHVKFL-NH2 [TVHV] | 0 (a score of 0 if no trace of the product of hydrolysis was seen after 8 hours of incubation) | 0 (a score of 0 if no trace of the product of hydrolysis was seen after 8 hours of incubation) |
| Ac-GATVHWKFL-NH2 [TVHW] | 0 (a score of 0 if no trace of the product of hydrolysis was seen after 8 hours of incubation) | 3 (a score of 3 for detection at 8 hours) |
| Ac-GATVHYKFL-NH2 [TVHY] | 0 (a score of 0 if no trace of the product of hydrolysis was seen after 8 hours of incubation) | 0 (a score of 0 if no trace of the product of hydrolysis was seen after 8 hours of incubation) |

| Substance | hydrolysis score from MALDI-TOF screening (37° C.) | hydrolysis score from MALDI-TOF screening (45° C.) |
| --- | --- | --- |
| Ac-GATWHAKFL-NH2 [TWHA] | 0 (a score of 0 if no trace of the product of hydrolysis was seen after 8 hours of incubation) | 0 (a score of 0 if no trace of the product of hydrolysis was seen after 8 hours of incubation) |
| Ac-GATWHDKFL-NH2 [TWHD] | 0 (a score of 0 if no trace of the product of hydrolysis was seen after 8 hours of incubation) | 0 (a score of 0 if no trace of the product of hydrolysis was seen after 8 hours of incubation) |
| Ac-GATWHEKFL-NH2 [TWHE] | 0 (a score of 0 if no trace of the product of hydrolysis was seen after 8 hours of incubation) | 0 (a score of 0 if no trace of the product of hydrolysis was seen after 8 hours of incubation) |
| Ac-GATWHFKFL-NH2 [TWHF] | 0 (a score of 0 if no trace of the product of hydrolysis was seen after 8 hours of incubation) | 0 (a score of 0 if no trace of the product of hydrolysis was seen after 8 hours of incubation) |
| Ac-GATWHGKFL-NH2 [TWHG] | 0 (a score of 0 if no trace of the product of hydrolysis was seen after 8 hours of incubation) | 0 (a score of 0 if no trace of the product of hydrolysis was seen after 8 hours of incubation) |
| Ac-GATWHHKFL-NH2 [TWHH] | 0 (a score of 0 if no trace of the product of hydrolysis was seen after 8 hours of incubation) | 0 (a score of 0 if no trace of the product of hydrolysis was seen after 8 hours of incubation) |
| Ac-GATWHIKFL-NH2 [TWHI] | 0 (a score of 0 if no trace of the product of hydrolysis was seen after 8 hours of incubation) | 3 (a score of 3 for detection at 8 hours) |
| Ac-GATWHKKFL-NH2 [TWHK] | 4 (a score of 4 for detection at 6 hours) | 4 (a score of 4 for detection at 6 hours) |
| Ac-GATWHLKFL-NH2 [TWHL] | 0 (a score of 0 if no trace of the product of hydrolysis was seen after 8 hours of incubation) | 3 (a score of 3 for detection at 8 hours) |
| Ac-GATWHMKFL-NH2 [TWHM] | 0 (a score of 0 if no trace of the product of hydrolysis was seen after 8 hours of incubation) | 3 (a score of 3 for detection at 8 hours) |
| Ac-GATWHNKFL-NH2 [TWHN] | 0 (a score of 0 if no trace of the product of hydrolysis was seen after 8 hours of incubation) | 0 (a score of 0 if no trace of the product of hydrolysis was seen after 8 hours of incubation) |
| Ac-GATWHPKFL-NH2 [TWHP] | 0 (a score of 0 if no trace of the product of hydrolysis was seen after 8 hours of incubation) | 0 (a score of 0 if no trace of the product of hydrolysis was seen after 8 hours of incubation) |
| Ac-GATWHQKFL-NH2 [TWHQ] | 0 (a score of 0 if no trace of the product of hydrolysis was seen after 8 hours of incubation) | 0 (a score of 0 if no trace of the product of hydrolysis was seen after 8 hours of incubation) |
| Ac-GATWHRKFL-NH2 [TWHR] | 3 (a score of 3 for detection at 8 hours) | 4 (a score of 4 for detection at 6 hours) |
| Ac-GATWHSKFL-NH2 [TWHS] | 0 (a score of 0 if no trace of the product of hydrolysis was seen after 8 hours of incubation) | 0 (a score of 0 if no trace of the product of hydrolysis was seen after 8 hours of incubation) |
| Ac-GATWHTKFL-NH2 [TWHT] | 0 (a score of 0 if no trace of the product of hydrolysis was seen after 8 hours of incubation) | 0 (a score of 0 if no trace of the product of hydrolysis was seen after 8 hours of incubation) |
| Ac-GATWHVKFL-NH2 [TWHV] | 0 (a score of 0 if no trace of the product of hydrolysis was seen after 8 hours of incubation) | 0 (a score of 0 if no trace of the product of hydrolysis was seen after 8 hours of incubation) |
| Ac-GATWHWKFL-NH2 [TWHW] | 3 (a score of 3 for detection at 8 hours) | 4 (a score of 4 for detection at 6 hours) |
| Ac-GATYHAKFL-NH2 [TYHA] | 0 (a score of 0 if no trace of the product of hydrolysis was seen after 8 hours of incubation) | 0 (a score of 0 if no trace of the product of hydrolysis was seen after 8 hours of incubation) |
